Laboratory results reported in ChEMBL document CHEMBL1909046, “DrugMatrix in vitro pharmacology data”.

Target: T1, Progesterone receptor (Bos taurus, UniProt Q690N0)
T1 sequence (Q690N0 whole entry): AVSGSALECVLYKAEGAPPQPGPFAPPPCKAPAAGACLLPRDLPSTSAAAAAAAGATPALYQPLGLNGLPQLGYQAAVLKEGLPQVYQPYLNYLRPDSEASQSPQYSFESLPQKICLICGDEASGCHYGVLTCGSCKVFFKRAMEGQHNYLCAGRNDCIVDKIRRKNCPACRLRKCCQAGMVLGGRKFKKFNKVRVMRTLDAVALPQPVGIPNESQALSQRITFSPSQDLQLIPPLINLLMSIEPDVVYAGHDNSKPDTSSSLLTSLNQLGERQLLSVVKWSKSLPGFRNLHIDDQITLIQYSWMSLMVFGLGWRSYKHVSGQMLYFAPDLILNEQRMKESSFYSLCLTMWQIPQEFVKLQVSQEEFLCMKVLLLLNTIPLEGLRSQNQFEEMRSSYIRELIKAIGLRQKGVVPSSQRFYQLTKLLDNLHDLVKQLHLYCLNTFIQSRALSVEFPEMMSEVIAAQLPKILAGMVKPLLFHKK
Assay: DRUGMATRIX: Progesterone radioligand binding (ligand: [3H] R-5020)
Type: tissue-based, Uterus
Settings: Not Active = under 50% inhibition at 10 µM

Structure (SMILES) | IC50
CCC1=C(C)CN(C(=O)NCCc2ccc(S(=O)(=O)NC(=O)N[C@H]3CC[C@H](C)CC3)cc2)C1=O [GLIMEPIRIDE] | Not Active
Nc1cc(-c2ccncc2)c[nH]c1=O [INAMRINONE] | Not Active
CCCCC1=NC2(CCCC2)C(=O)N1Cc1ccc(-c2ccccc2-c2nnn[nH]2)cc1 [IRBESARTAN] | Not Active
CN1CCC(=C2c3ccccc3CC(=O)c3sccc32)CC1 [KETOTIFEN] | Not Active
C[N+](C)(C)C[C@H](O)CC(=O)[O-] [LEVOCARNITINE] | Not Active

System: not listed separately
Assay: DRUGMATRIX: ATPase, Na+/K+ enzyme inhibition (substrate: ATP)
Type: tissue-based, Sus scrofa, Heart
Settings: Not Active = under 50% inhibition at 10 µM

Structure (SMILES) | IC50 | Ki
CCC1=C(C)CN(C(=O)NCCc2ccc(S(=O)(=O)NC(=O)N[C@H]3CC[C@H](C)CC3)cc2)C1=O [GLIMEPIRIDE] | Not Active | Not Active
Nc1cc(-c2ccncc2)c[nH]c1=O [INAMRINONE] | Not Active | Not Active
CCCCC1=NC2(CCCC2)C(=O)N1Cc1ccc(-c2ccccc2-c2nnn[nH]2)cc1 [IRBESARTAN] | Not Active | Not Active
CN1CCC(=C2c3ccccc3CC(=O)c3sccc32)CC1 [KETOTIFEN] | Not Active | Not Active
C[N+](C)(C)C[C@H](O)CC(=O)[O-] [LEVOCARNITINE] | Not Active | Not Active

Target: T2, Vasoactive intestinal polypeptide receptor 1 (Homo sapiens, UniProt P32241); further: in other assays of this panel Not Active means under 50% inhibition at 10 µM
T2 sequence (P32241 whole entry): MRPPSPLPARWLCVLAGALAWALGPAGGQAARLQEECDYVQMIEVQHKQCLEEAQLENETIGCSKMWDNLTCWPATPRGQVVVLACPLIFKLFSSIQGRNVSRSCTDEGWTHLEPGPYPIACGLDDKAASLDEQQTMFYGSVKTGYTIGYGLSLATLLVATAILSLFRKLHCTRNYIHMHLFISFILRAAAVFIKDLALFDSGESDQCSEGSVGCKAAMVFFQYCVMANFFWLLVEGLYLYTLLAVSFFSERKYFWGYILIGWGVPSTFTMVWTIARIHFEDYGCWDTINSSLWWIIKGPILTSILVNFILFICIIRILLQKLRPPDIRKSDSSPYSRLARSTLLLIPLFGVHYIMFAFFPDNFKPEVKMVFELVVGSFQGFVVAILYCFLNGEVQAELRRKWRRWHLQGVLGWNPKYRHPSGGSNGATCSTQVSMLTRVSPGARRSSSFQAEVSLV
Type: cell membranes, Membrane
Settings: ht-29

Structure (SMILES) | IC50
CCC1=C(C)CN(C(=O)NCCc2ccc(S(=O)(=O)NC(=O)N[C@H]3CC[C@H](C)CC3)cc2)C1=O [GLIMEPIRIDE] | Not Active
Nc1cc(-c2ccncc2)c[nH]c1=O [INAMRINONE] | Not Active
CCCCC1=NC2(CCCC2)C(=O)N1Cc1ccc(-c2ccccc2-c2nnn[nH]2)cc1 [IRBESARTAN] | Not Active
CN1CCC(=C2c3ccccc3CC(=O)c3sccc32)CC1 [KETOTIFEN] | Not Active
C[N+](C)(C)C[C@H](O)CC(=O)[O-] [LEVOCARNITINE] | Not Active

Target: T3, Cytochrome P450 1A2 (Homo sapiens, UniProt P05177); further: in other assays of this panel Not Active means under 50% inhibition at 10 µM
T3 sequence (P05177 whole entry): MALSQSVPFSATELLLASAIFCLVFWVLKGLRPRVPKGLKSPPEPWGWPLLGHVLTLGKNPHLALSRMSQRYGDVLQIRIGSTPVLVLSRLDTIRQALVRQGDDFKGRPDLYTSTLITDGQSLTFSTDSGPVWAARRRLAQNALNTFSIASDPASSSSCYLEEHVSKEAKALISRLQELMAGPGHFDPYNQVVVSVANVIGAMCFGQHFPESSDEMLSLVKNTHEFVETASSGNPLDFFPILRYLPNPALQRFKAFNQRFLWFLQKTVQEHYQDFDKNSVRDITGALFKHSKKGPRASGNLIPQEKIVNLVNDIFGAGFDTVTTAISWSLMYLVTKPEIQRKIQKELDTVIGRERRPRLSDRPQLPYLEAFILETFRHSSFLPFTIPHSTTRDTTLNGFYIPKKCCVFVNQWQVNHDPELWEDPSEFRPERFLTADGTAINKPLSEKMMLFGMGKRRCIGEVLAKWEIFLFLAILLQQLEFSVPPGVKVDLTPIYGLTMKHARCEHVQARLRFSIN
Settings: bti-tn-5b1-4

Structure (SMILES) | IC50 | Ki
CCC1=C(C)CN(C(=O)NCCc2ccc(S(=O)(=O)NC(=O)N[C@H]3CC[C@H](C)CC3)cc2)C1=O [GLIMEPIRIDE] | Not Active | Not Active
Nc1cc(-c2ccncc2)c[nH]c1=O [INAMRINONE] | Not Active | Not Active
CCCCC1=NC2(CCCC2)C(=O)N1Cc1ccc(-c2ccccc2-c2nnn[nH]2)cc1 [IRBESARTAN] | Not Active | Not Active
CN1CCC(=C2c3ccccc3CC(=O)c3sccc32)CC1 [KETOTIFEN] | Not Active | Not Active
C[N+](C)(C)C[C@H](O)CC(=O)[O-] [LEVOCARNITINE] | Not Active | Not Active

Target: Nitric oxide synthase 1 (Rattus norvegicus, UniProt P29476); further: in other assays of this panel Not Active means under 50% inhibition at 10 µM
Sequence (P29476 whole entry): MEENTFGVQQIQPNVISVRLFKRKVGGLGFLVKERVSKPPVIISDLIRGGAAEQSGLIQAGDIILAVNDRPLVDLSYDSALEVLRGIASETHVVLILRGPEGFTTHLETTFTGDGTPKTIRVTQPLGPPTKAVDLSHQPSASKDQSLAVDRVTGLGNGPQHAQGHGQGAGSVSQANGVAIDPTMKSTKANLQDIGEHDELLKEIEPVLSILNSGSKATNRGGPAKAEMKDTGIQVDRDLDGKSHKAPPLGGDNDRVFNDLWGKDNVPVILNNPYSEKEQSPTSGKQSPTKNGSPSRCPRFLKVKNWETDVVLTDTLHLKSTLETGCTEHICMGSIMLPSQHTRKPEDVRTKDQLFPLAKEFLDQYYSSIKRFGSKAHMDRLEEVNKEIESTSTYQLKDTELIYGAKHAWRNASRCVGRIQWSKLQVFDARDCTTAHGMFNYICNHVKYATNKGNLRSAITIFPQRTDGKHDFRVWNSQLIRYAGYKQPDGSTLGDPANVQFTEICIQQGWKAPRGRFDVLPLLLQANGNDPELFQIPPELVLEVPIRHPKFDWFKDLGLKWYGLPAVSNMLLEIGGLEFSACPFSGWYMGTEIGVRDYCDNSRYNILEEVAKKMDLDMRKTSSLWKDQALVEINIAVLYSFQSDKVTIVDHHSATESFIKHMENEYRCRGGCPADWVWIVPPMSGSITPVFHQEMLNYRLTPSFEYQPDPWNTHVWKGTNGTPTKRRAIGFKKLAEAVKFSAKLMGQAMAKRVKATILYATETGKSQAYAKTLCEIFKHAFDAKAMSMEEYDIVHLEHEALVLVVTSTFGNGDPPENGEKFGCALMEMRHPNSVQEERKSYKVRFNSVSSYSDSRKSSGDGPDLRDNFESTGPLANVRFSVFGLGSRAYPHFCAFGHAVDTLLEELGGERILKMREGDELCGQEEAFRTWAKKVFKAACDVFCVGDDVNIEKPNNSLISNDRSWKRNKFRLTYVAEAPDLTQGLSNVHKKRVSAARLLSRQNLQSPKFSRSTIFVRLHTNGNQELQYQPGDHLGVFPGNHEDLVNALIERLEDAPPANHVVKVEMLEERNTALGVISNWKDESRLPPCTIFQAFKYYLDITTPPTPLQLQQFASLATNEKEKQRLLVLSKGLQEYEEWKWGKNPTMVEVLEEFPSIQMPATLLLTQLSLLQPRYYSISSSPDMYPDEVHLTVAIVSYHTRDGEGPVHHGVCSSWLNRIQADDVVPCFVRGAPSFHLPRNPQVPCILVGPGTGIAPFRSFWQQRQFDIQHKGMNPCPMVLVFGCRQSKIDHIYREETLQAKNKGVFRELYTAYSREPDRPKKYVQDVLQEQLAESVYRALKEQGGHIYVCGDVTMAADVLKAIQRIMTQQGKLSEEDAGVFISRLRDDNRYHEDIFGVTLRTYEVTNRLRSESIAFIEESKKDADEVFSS
Type: tissue-based, Cerebellum
Settings: not given

Structure (SMILES) | IC50
CCC1=C(C)CN(C(=O)NCCc2ccc(S(=O)(=O)NC(=O)N[C@H]3CC[C@H](C)CC3)cc2)C1=O [GLIMEPIRIDE] | Not Active
Nc1cc(-c2ccncc2)c[nH]c1=O [INAMRINONE] | Not Active
CCCCC1=NC2(CCCC2)C(=O)N1Cc1ccc(-c2ccccc2-c2nnn[nH]2)cc1 [IRBESARTAN] | Not Active
CN1CCC(=C2c3ccccc3CC(=O)c3sccc32)CC1 [KETOTIFEN] | Not Active
C[N+](C)(C)C[C@H](O)CC(=O)[O-] [LEVOCARNITINE] | Not Active

Target: T4, Receptor-type tyrosine-protein phosphatase C (Homo sapiens, UniProt P08575);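 further: inhibition of CD45 enzyme activity measured using DiFMUP as substrate; in other assays of this panel Not Active means under 50% inhibition at 10 µM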
T4 sequence (P08575 whole entry): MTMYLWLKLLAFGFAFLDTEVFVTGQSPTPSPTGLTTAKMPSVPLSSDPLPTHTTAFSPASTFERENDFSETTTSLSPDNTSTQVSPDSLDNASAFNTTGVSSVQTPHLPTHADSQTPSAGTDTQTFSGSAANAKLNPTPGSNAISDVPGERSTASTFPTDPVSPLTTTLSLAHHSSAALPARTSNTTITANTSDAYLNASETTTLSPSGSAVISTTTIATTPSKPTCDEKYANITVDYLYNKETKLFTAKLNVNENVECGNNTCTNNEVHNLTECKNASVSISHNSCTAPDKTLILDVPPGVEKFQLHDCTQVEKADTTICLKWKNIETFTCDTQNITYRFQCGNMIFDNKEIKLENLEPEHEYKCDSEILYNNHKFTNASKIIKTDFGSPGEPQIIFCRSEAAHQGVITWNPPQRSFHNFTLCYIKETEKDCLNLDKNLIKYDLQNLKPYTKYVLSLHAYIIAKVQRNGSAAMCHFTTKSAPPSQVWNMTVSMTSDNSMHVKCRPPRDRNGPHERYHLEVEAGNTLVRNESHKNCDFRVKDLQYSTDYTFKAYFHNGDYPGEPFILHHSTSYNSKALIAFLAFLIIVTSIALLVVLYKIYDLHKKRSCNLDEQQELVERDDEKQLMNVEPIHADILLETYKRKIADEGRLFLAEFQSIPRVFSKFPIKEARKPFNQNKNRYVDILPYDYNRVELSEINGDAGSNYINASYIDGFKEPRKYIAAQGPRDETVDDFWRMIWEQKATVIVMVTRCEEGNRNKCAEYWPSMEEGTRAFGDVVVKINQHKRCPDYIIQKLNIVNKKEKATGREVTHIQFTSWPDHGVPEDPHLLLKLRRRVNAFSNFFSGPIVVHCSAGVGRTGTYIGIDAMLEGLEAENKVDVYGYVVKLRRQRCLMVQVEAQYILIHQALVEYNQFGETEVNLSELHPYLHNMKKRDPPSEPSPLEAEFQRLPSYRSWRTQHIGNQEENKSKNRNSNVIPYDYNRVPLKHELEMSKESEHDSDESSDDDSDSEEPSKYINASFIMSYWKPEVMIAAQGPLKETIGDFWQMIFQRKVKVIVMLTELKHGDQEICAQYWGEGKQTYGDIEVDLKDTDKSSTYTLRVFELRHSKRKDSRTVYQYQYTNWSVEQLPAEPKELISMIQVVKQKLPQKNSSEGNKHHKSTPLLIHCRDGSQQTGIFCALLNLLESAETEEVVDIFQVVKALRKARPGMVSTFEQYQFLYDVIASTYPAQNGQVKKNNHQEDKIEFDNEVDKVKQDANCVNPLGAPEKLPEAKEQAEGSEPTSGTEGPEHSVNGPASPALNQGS
Parameters: species or system Escherichia coli
Settings: not given

Structure (SMILES) | IC50
CCC1=C(C)CN(C(=O)NCCc2ccc(S(=O)(=O)NC(=O)N[C@H]3CC[C@H](C)CC3)cc2)C1=O [GLIMEPIRIDE] | Not Active
Nc1cc(-c2ccncc2)c[nH]c1=O [INAMRINONE] | Not Active
CCCCC1=NC2(CCCC2)C(=O)N1Cc1ccc(-c2ccccc2-c2nnn[nH]2)cc1 [IRBESARTAN] | Not Active
CN1CCC(=C2c3ccccc3CC(=O)c3sccc32)CC1 [KETOTIFEN] | Not Active
C[N+](C)(C)C[C@H](O)CC(=O)[O-] [LEVOCARNITINE] | Not Active
